# Measurements as given in the supplement of paper PMC10307832.
# Columns and labels:
# Assay in all cases: relative viability (nuclei count vs DMSO), 5 days (fraction); higher = more cells survive
# FH535 + Navitoclax = compound: CC1=C(C=CC(=C1)[N+](=O)[O-])NS(=O)(=O)C2=C(C=CC(=C2)Cl)Cl [FH535] + CC1(C)CCC(c2ccc(Cl)cc2)=C(CN2CCN(c3ccc(C(=O)NS(=O)(=O)c4ccc(N[C@H](CCN5CCOCC5)CSc5ccccc5)c(S(=O)(=O)C(F)(F)F)c4)cc3)CC2)C1 [Navitoclax] (partner 0.5 µM)
# Method in brief: (§1)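 Lung cancer cell lines were seeded in 1536-well plates and dosed by pin tool the next day, with either a single drug or a fixed anchor-drug dose combined with five library-drug doses (not always all listed) spaced in √10 steps. Five days later, one step fixed the cells and stained their nuclei (final 0.05% Triton X-100, 1% formaldehyde, 1 ug/ml Hoechst), and nuclei were counted on 4× images. Relative viability is the nuclei count in treated wells divided by the count in vehicle wells, and each value is the median of duplicate plates.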
# FH535 + Lapatinib = compound: CC1=C(C=CC(=C1)[N+](=O)[O-])NS(=O)(=O)C2=C(C=CC(=C2)Cl)Cl [FH535] + CS(=O)(=O)CCNCc1ccc(-c2ccc3ncnc(Nc4ccc(OCc5cccc(F)c5)c(Cl)c4)c3c2)o1 [Lapatinib] (partner 2 µM)
# Method in brief: as §1
# FH535 + Vorinostat = compound: CC1=C(C=CC(=C1)[N+](=O)[O-])NS(=O)(=O)C2=C(C=CC(=C2)Cl)Cl [FH535] + O=C(CCCCCCC(=O)Nc1ccccc1)NO [Vorinostat] (partner 1 µM)
# Method in brief: as §1
# FH535 + Dasatinib = compound: CC1=C(C=CC(=C1)[N+](=O)[O-])NS(=O)(=O)C2=C(C=CC(=C2)Cl)Cl [FH535] + Cc1nc(Nc2ncc(C(=O)Nc3c(C)cccc3Cl)s2)cc(N2CCN(CCO)CC2)n1 [Dasatinib] (partner 0.075 µM)
# Method in brief: as §1
# FH535 = compound: CC1=C(C=CC(=C1)[N+](=O)[O-])NS(=O)(=O)C2=C(C=CC(=C2)Cl)Cl [FH535]
# Method in brief: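 Following overnight incubation at 37 °C, lung cancer cell lines in 1536-well plates were pinned with five library-drug doses (not always all listed) in √10 steps on vehicle-anchored plates. The cells then spent 5 days without medium change before a combined fix, permeabilisation and Hoechst stain, 4× imaging and MetaXpress nuclear counts. Viability is the treated-to-vehicle ratio of nuclei, taken as the median across plates. Only plates with control CV below 25% and at least one doubling passed.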
Cell Line,relative viability (FH535 + Navitoclax; first compound 0.04 µM),relative viability (FH535 + Navitoclax; first compound 0.1265 µM),relative viability (FH535 + Navitoclax; first compound 0.4 µM),relative viability (FH535 + Navitoclax; first compound 1.265 µM),relative viability (FH535 + Lapatinib; first compound 0.04 µM),relative viability (FH535 + Lapatinib; first compound 0.1265 µM),relative viability (FH535 + Lapatinib; first compound 0.4 µM),relative viability (FH535 + Lapatinib; first compound 1.265 µM),relative viability (FH535 + Vorinostat; first compound 0.04 µM),relative viability (FH535 + Vorinostat; first compound 0.1265 µM),relative viability (FH535 + Vorinostat; first compound 0.4 µM),relative viability (FH535 + Vorinostat; first compound 1.265 µM),relative viability (FH535 + Dasatinib; first compound 0.04 µM),relative viability (FH535 + Dasatinib; first compound 0.1265 µM),relative viability (FH535 + Dasatinib; first compound 0.4 µM),relative viability (FH535 + Dasatinib; first compound 1.265 µM),relative viability (FH535; 0.04 µM),relative viability (FH535; 0.1265 µM),relative viability (FH535; 0.4 µM),relative viability (FH535; 1.265 µM)
LXF-289,0.996,0.936,0.945,0.645,0.88,0.878,0.886,0.801,0.58,0.762,0.698,0.574,0.205,0.262,0.225,0.212,0.99,0.989,0.913,0.851
EKVX,0.976,0.849,0.924,0.789,0.179,0.221,0.227,0.187,0.403,0.819,0.693,0.222,0.336,0.705,0.511,0.243,0.987,0.951,0.905,0.773
A-427,0.968,0.928,0.839,0.865,0.995,1.03,0.962,0.99,0.862,0.846,0.845,0.725,0.54,0.826,0.657,0.564,0.908,1.05,0.926,0.819
IA-LM,0.917,0.621,0.593,0.496,0.796,0.778,0.66,0.588,0.999,1.14,0.954,0.914,–,–,–,–,0.963,0.864,0.868,0.713
ChaGo-K-1,0.96,1.35,1.04,0.636,–,–,–,–,0.469,0.732,0.693,0.59,0.581,0.563,0.54,0.563,0.91,1.06,0.887,0.775
NCI-H1944,–,1.01,0.975,0.924,–,0.777,0.668,0.754,0.291,0.575,0.425,0.509,0.179,0.209,0.222,0.204,0.862,0.993,0.928,0.818
NCI-H358,–,–,–,–,0.406,0.422,0.441,0.388,0.588,0.778,0.664,0.43,0.141,0.15,0.159,0.143,0.853,1.11,0.814,0.674
NCI-H441,0.669,0.773,0.502,0.365,–,–,–,–,0.733,0.59,0.843,0.757,0.436,0.518,0.527,0.472,0.929,1.14,1.14,0.84
ABC-1,–,–,–,–,1.21,1.08,1.36,0.983,0.944,1,0.934,0.607,0.584,0.619,0.4,0.36,1,0.858,0.812,0.774
NCI-H1792,0.611,0.673,0.587,0.377,0.837,0.948,0.866,0.673,–,–,–,–,0.661,0.761,0.701,0.543,0.874,0.958,0.789,0.62
HCC-44,1.06,1.04,0.911,0.74,1.06,1.03,0.977,0.773,1.11,1.1,1.03,0.818,–,–,–,–,0.994,0.943,0.836,0.747
NCI-H1703,1.28,1.18,1.21,0.88,1.12,1.12,1.11,0.662,–,–,–,–,–,–,–,–,0.958,0.848,0.929,0.768
NCI-H2342,–,–,–,–,–,–,–,–,0.674,0.725,0.87,0.721,0.305,0.339,0.281,0.297,0.96,0.964,1.01,0.76
NCI-H650,–,–,–,–,0.718,0.886,0.703,0.68,0.342,0.383,0.385,0.365,0.4,0.462,0.429,0.309,0.82,0.913,0.846,0.687
NCI-H522,–,–,–,–,–,–,–,–,0.855,0.858,0.731,0.78,0.882,0.862,0.827,0.979,0.875,0.894,0.856,0.825
NCI-H661,–,–,–,–,0.452,0.456,0.461,0.344,0.745,0.821,0.799,0.687,0.704,0.994,0.615,0.475,1,1.01,0.955,0.637
LCLC-103H,–,–,–,–,–,–,–,–,0.569,0.781,0.694,0.666,0.441,0.369,0.353,0.384,0.919,1.03,0.901,0.753
